Laboratory results: patent US20020173538A1, “Method for sensitizing cancer cells to cancer therapies with a mevalonate-reducing compound” (priority 2000, published 2002)
Like-named read-outs stand apart in the source and are kept apart here. Marks after values point to notes of the source that are not given here.

Key:
Hep G2 cells = test: MTT cell viability assay, Hep G2 cells (serum-free DMEM); settings: Homo sapiens
Description: (§1) Human hepatoma cell lines Hep G2 and Hep 3 were chosen as the in vitro models of hepatocytes and hepatoma, respectively.

[1] = as above; settings: human, Hep G2 cells, Cell viability
Description: as §1

Hep 3B cells = test: MTT cell viability assay, Hep 3B cells (serum-free DMEM); settings: for viability at 1.25 µM / viability at 5 µM / viability at 10 µM / viability at 25 µM / IC50 / viability at 0.1 µM / viability at 0.5 µM / viability at 1 µM / viability at 2 µM: Homo sapiens, Hep3B
Description: as §1

[2] = HepG2, 48 h, read-out: IC50 (cell viability), 48 hr
[3] = HepG2, 72 h, read-out: IC50 (cell viability), 72 hr
[4] = no lovastatin 48 hr, then CAO 1.25 μM 48 hr
[5] = no lovastatin 48 hr, then CAO 5 μM 48 hr
[6] = 48 h, read-out: IC50 (cell viability), 48 hr
[7] = 72 h, read-out: IC50 (cell viability), 72 hr

CCCCCCCCOC(=O)/C=C/c1ccc(O)c(O)c1 [CAO, caffeic acid 1-octyl ester]
IC50 (Hep G2 cells; [2]): 4 µM | IC50 (Hep G2 cells; [3]): 2.7 µM | viability at 96 h, 1.25 μM ([1]; CAO 1.25 μM alone, 96 hr): 74 ± 2.9% | viability at 48 h, 1.25 μM ([1]; CAO 1.25 μM, 48 hr): 104 ± 4.6% | viability at 72 h, 1.25 μM ([1]; CAO 1.25 μM, 72 hr): 102.7 ± 0.4% | viability at 96 h, 5 μM ([1]; CAO 5 μM alone, 96 hr): 16.2 ± 1.2% | viability at 48 h, 5 μM ([1]; CAO 5 μM, 48 hr): 44.2 ± 6.6% | viability at 72 h, 5 μM ([1]; CAO 5 μM, 72 hr): 18.1 ± 2.1% | viability at 48 h, 10 μM ([1]; CAO 10 μM, 48 hr): 5.8 ± 3.9% | viability at 72 h, 10 μM ([1]; CAO 10 μM, 72 hr): 0% | viability at 48 h, 25 μM ([1]; CAO 25 μM, 48 hr): 0% | viability at 72 h, 25 μM ([1]; CAO 25 μM, 72 hr): 0% | viability at 48 h, 1.25 μM [1, 4]: 99 ± 4.1% | viability at 48 h, 5 μM [1, 5]: 42.8 ± 3% | Ratio, inhibition (%) Hep 3B/inhibition (%) Hep G2 (Hep 3B cells; CAO 1.25 μM alone, 96 hr): 1.3* | Ratio, inhibition (%) Hep 3B/inhibition (%) Hep G2 (Hep 3B cells; CAO 5 μM alone, 96 hr): 0.9 | Ratio, inhibition (%) Hep 3B/inhibition (%) Hep G2 (Hep 3B cells; CAO 5 μM, 48 hr): 0.9** | Ratio, inhibition (%) Hep 3B/inhibition (%) Hep G2 (Hep 3B cells; CAO 5 μM, 72 hr): 1.0 | Ratio, inhibition (%) Hep 3B/inhibition (%) Hep G2 (Hep 3B cells; CAO 10 μM, 48 hr): 0.8 | Ratio, inhibition (%) Hep 3B/inhibition (%) Hep G2 (Hep 3B cells; CAO 10 μM, 72 hr): 1.0 | Ratio, inhibition (%) Hep 3B/inhibition (%) Hep G2 (Hep 3B cells; CAO 25 μM, 48 hr): 1.0* | Ratio, inhibition (%) Hep 3B/inhibition (%) Hep G2 (Hep 3B cells; CAO 25 μM, 72 hr): 1.0 | viability at 1.25 µM (Hep 3B cells; 48 h, read-out: Cell viability, CAO 1.25 μM, 48 hr): 97.8 ± 4.1% | viability at 5 µM (Hep 3B cells; 48 h, read-out: Cell viability, CAO 5 μM, 48 hr): 52 ± 1.8% | viability at 10 µM (Hep 3B cells; 48 h, read-out: Cell viability, CAO 10 μM, 48 hr): 21.7 ± 3.9% | viability at 25 µM (Hep 3B cells; 48 h, read-out: Cell viability, CAO 25 μM, 48 hr): 3.9 ± 1.3% | IC50 (Hep 3B cells; [6]): 5.3 µM | viability at 1.25 µM (Hep 3B cells; 72 h, read-out: Cell viability, CAO 1.25 μM, 72 hr): 89.8 ± 0.6% | viability at 5 µM (Hep 3B cells; 72 h, read-out: Cell viability, CAO 5 μM, 72 hr): 16.3 ± 2.6% | viability at 10 µM (Hep 3B cells; 72 h, read-out: Cell viability, CAO 10 μM, 72 hr): 2.4 ± 1.6% | viability at 25 µM (Hep 3B cells; 72 h, read-out: Cell viability, CAO 25 μM, 72 hr): 0% | IC50 (Hep 3B cells; [7]): 2.9 µM | viability at 1.25 µM (Hep 3B cells; 96 h, read-out: Cell viability, CAO 1.25 μM alone, 96 hr): 66.9 ± 2.9% | viability at 5 µM (Hep 3B cells; 96 h, read-out: Cell viability, CAO 5 μM alone, 96 hr): 20.1 ± 5.7% | Cell viability (Hep 3B cells; [4]): 83.0 ± 4.4^b % of control | Ratio, inhibition (%) Hep 3B/inhibition (%) Hep G2 (Hep 3B cells; [4]): 17.0*** | Cell viability (Hep 3B cells; [5]): 53.2 ± 4.5^d % of control | Ratio, inhibition (%) Hep 3B/inhibition (%) Hep G2 (Hep 3B cells; [5]): 0.8*

COc1cccc2c1C(=O)c1c(O)c3c(c(O)c1C2=O)C[C@@](O)(C(=O)CO)C[C@@H]3O[C@H]1C[C@H](N)[C@H](O)[C@H](C)O1 [DOX, doxorubicin]
IC50 (Hep G2 cells; [2]): 0.4 µM | IC50 (Hep G2 cells; [3]): 0.5 µM | viability at 48 hr, 0.1 μM ([1]; DOX 0.1 μM, 48 hr): 100 ± 5.3% | viability at 72 hr, 0.1 μM ([1]; DOX 0.1 μM, 72 hr): 99.9 ± 7.5% | viability at 48 hr, 0.5 μM ([1]; DOX 0.5 μM, 48 hr): 42.8 ± 3.7% | viability at 72 hr, 0.5 μM ([1]; DOX 0.5 μM, 72 hr): 46.7 ± 4% | viability at 48 hr, 1 μM ([1]; DOX 1 μM, 48 hr): 29.1 ± 1.7% | viability at 72 hr, 1 μM ([1]; DOX 1 μM, 72 hr): 20 ± 1.1% | viability at 48 hr, 2 μM ([1]; DOX 2 μM, 48 hr): 16.7 ± 2.4% | viability at 72 hr, 2 μM ([1]; DOX 2 μM, 72 hr): 1.9 ± 0.8% | Ratio, inhibition (%) Hep 3B/inhibition (%) Hep G2 (Hep 3B cells; DOX 0.5 μM, 48 hr): 0.6*** | Ratio, inhibition (%) Hep 3B/inhibition (%) Hep G2 (Hep 3B cells; DOX 0.5 μM, 72 hr): 0.7* | Ratio, inhibition (%) Hep 3B/inhibition (%) Hep G2 (Hep 3B cells; DOX 1 μM, 48 hr): 0.6*** | Ratio, inhibition (%) Hep 3B/inhibition (%) Hep G2 (Hep 3B cells; DOX 1 μM, 72 hr): 0.6** | Ratio, inhibition (%) Hep 3B/inhibition (%) Hep G2 (Hep 3B cells; DOX 2 μM, 48 hr): 0.7*** | Ratio, inhibition (%) Hep 3B/inhibition (%) Hep G2 (Hep 3B cells; DOX 2 μM, 72 hr): 0.9** | viability at 0.1 µM (Hep 3B cells; 48 h, read-out: Cell viability, DOX 0.1 μM, 48 hr): 99.9 ± 7.8% | viability at 0.5 µM (Hep 3B cells; 48 h, read-out: Cell viability, DOX 0.5 μM, 48 hr): 66.7 ± 1.6% | viability at 1 µM (Hep 3B cells; 48 h, read-out: Cell viability, DOX 1 μM, 48 hr): 59.3 ± 4.1% | viability at 2 µM (Hep 3B cells; 48 h, read-out: Cell viability, DOX 2 μM, 48 hr): 40.1 ± 3% | IC50 (Hep 3B cells; [6]): 1.5 µM | viability at 0.1 µM (Hep 3B cells; 72 h, read-out: Cell viability, DOX 0.1 μM, 72 hr): 100 ± 5.8% | viability at 0.5 µM (Hep 3B cells; 72 h, read-out: Cell viability, DOX 0.5 μM, 72 hr): 62.1 ± 6.9% | viability at 1 µM (Hep 3B cells; 72 h, read-out: Cell viability, DOX 1 μM, 72 hr): 48.9 ± 8.4% | viability at 2 µM (Hep 3B cells; 72 h, read-out: Cell viability, DOX 2 μM, 72 hr): 9.9 ± 2.7% | IC50 (Hep 3B cells; [7]): 1 µM
